Data from US20190134120A1, “METHODS FOR THE TREATMENT OF BLADDER CANCER” (Viralytics Limited, priority 2013, published 2019).
Like-named read-outs stand apart in the source and are kept apart here.

How the values were obtained:
[1] = system: Patient derived bladder tumour cell line; experiment: Infection of patient derived primary bladder tumour cells with CVA21; format: cell-based, Human; settings: varying MOIs; 72 hours; MTS
Method: (§1) Human cancer bladder tissue was disaggregated and primary tumour cells were isolated. These were tested for bladder tumour markers (Cytokeratin 7) (data not shown). Primary tumour cells were infected at varying MOIs and incubated at 37 C for 72 hours then photographed and analysed by MTS ([3-(4,5-dimethylthiazol-2-yl)-5-(3-carboxymethoxyphenyl)-2-(4-sulfophenyl)-2H-tetrazolium, inner salt) assay. (A) CVA21 MOI 3. (B) Uninfected cells. (C) MTS assay. (D) CVA21 (3×10^6 TCID50) was incubated at 37 C for one hour in healthy donor urine. Resulting virus was titrated by TCID50 on SK-MEL-28 cells for 5 days.

[2] = system: late stage melanoma patients; settings: Phase II, intralesional treatment, cited from earlier work
[3] = system: human bladder tumor tissue; experiment: Ex vivo infection of human bladder tumour tissue by CVA21 (immunostaining); settings: 3.875x10^6 TCID50 CVA21; 48 hours post infection
Method: Primary bladder cancer tissue was received from the operating theatre of the Royal Surrey County Hospital UK in a dry pot. The tissue was cut into small pieces of between 2-4 mm and placed in 0.5 ml 10% FCS/DMEM with Pen/Strep and GLUT containing 3.875×10^6 TCID50 of CVA21. The infected tissue was incubated at 37° C., 5% CO2 for 48 hrs. Tissue was then fixed in 10% neutral buffered formalin for 18-24 hours.
Tissue pieces originating from the same human bladder tumour were either infected with CVA21 or left uninfected. Immunofluorescence and immunostaining for coxsackievirus was performed 48 hours post infection.
In brief, bladder cancer tissue was fixed using 10% neutral buffered formalin for 18-24 hours. After fixation, the tissue block was embedded in paraffin, and 4 μm sections cut and affixed onto slides. The sections were dried overnight at 37° C., deparaffinized, and rehydrated. Endogenous peroxidase was blocked using methanol/0.3% H202 for 20 min. The sections were then subjected to heat mediated antigen retrieval in a microwave using citrate buffer (10 mM, pH 6.0). Following washing, the slides were blocked with 2.5% horse serum and endogenous biotin blocked using an Avidin/Biotin blocking kit (SP-2001, VectorLabs) according to the manufacturer's instructions. […]

[4] = format: physicochemical, Human; settings: 3x10^6 TCID50; 37 C for one hour in healthy donor urine
Method: as §1
In brief, SK-MEL-28 cells were plated at 1×10^4 cells per well (100 μL) of a 96 well tray in 10% DMEM and incubate at 37° C. o/n. 37.5 ul of stock CVA21 virus (7.75e7 TCID50/ml) was added 462.5 ul of normal health urine or Hanks or PBS or HANKS for 1 hrs at 37° C. After which urine/CVA21 was serially diluted 1:10 in 2% DMEM. The media was removed from the cells and 100 ul of each dilution was added to one of ten wells. The assay was then incubated at 37° C. for 5 days, after which the media was removed from the cells and 100 ul of 0.1% Glutaldehyde (Sigma) in PBS was added. […]. TCID50 is calculated by the Spearman & Kärber algorithm as described in Hierholzer & Killington (1996), Virology Methods Manual, p. […]

[5] = system: late stage melanoma patients; settings: Phase I, intratumorally administered, cited from earlier work
VMCUB-1 cells = experiment: CVA21 cytotoxicity, VMCUB-1 cells; format: cell-based, Human; settings: FIG. 2b
T24 cells = experiment: Synergy between CVA21 and radiotherapy, T24 cells; format: cell-based, Human
Method: Combining CVA21 with the radiotherapy has shown exceptional synergy. When 5637 cells were irradiated (4-10 Gy) then 24 hours later exposed to CVA21 (multiplicities of infection 0.961-12.6), clear synergy was seen (FIG. 3a). […] A comprehensive experimental and analytic method was implemented for this work which allows calculation of combination index values at all data points, and therefore identification of areas of high synergy across the whole response surface (Greco et al. 1995) (FIGS. 3b, 3c).
In brief, T24/5637 cells were plated at 0.25×10^4/0.5×10^4 cells per well (100 μL) of a 96 well tray and incubated at 37° C. for 24 hrs. Day 2—An extra 100 ul 10% FCS, media was added to the cells. Then they were treated with Rad (Gy 0, 4, 6, 8, 10) on a clinical Varian linear accelerator in St Luke's Cancer Centre, Royal Surrey Hospital UK. Day 2—The plates were returned to the lab and incubated at 37° C. for 24 hrs. Day 3—The medium was removed and 100 ul of CVA21 (MOI 12.5-0.1 in 2% FCS medium) was added and incubated at 37° C. for 72 hrs. Day 6—The medium was removed and 100 μl of fresh 10% FCS medium added and incubated for 24 hrs. Day 7—The medium was removed and 100 μl of diluted MTS reagent (Promega) was added. The plates were then incubated for 1-2 hr and read absorbance at 492 nm. […]

[6] = system: bladder cancer cell line 5637; experiment: Synergy between CVA21 and MMC, dose matrix, 5637 cells; format: cell-based, Human; settings: MMC 0 to 2.8 ug/ml
Method: In brief, 5637/T24/TCCSUP-1 cells were plated at 1×10^4 cells per well (100 μL) of a 96 well tray and incubated at 37° C. for 24 hrs. Mitomycin C was diluted in 10% FCS medium in doubling dilutions from between 2.8 to 0.02 ug/ml for 5637 cells and between 3.36 to 0.03 ug/ml for T24 cells. CVA21 was then diluted between MOI 25-0.196 in doubling dilutions using each dilution of Mitomycin C. The cells were then treated with each dilution of CVA21/Mitomycin C and incubated for 72 hrs. The medium was removed and 100 μl of diluted MTS reagent (Promega) was added. The plates were then incubated for 1-4 hrs and absorbance read at 492 nm.

For Coxsackievirus A21 [CVA21], the “infectability of primary tumour cells” value [1] is listed as “highly infectable”, the tolerability [2] is listed as “generally being well-tolerated” and the clinical activity ([2]; late stage melanoma) is listed as “activity in both injected lesions and non-injected distant lesions”. For the same substance, the “infectability of ex-vivo tumour tissue” value [3] was “highly infectable”, the “stability in human urine” value [4] was “stable” and the tolerability ([5]; humans) was “well tolerated”. The “patients with stabilization or reduction in injected tumour volumes” value ([5]; late stage melanoma) was 55.55%, the “susceptibility of cell line to CVA21” value (VMCUB-1 cells) was “resistant” and the “interaction of CVA21 with radiation” value (T24 cells) was “Synergy between radiation and CVA21 was confirmed”. The “interaction of CVA21 with MMC” value [6] was “Synergy”.
